Assay results published in ChEMBL document CHEMBL5505996, “Discovery of novel osthole derivatives exerting anti-inflammatory effect on DSS-induced ulcerative colitis and LPS-induced acute lung injury in mice” (Eur J Med Chem, 2024).
The source made the active and inactive calls. The rule behind the calls is not given here.

Assays:
J774.A1 [1] = assay: Antiinflammatory activity against LPS-induced mouse J774.A1 cells assessed as inhibition of IL-6 release at 10 uM pretreated for 30 mins followed by LPS stimulation and measured after 24 hrs by ELISA relative to control; assay type: functional; conditions: time 24.5 hrs
[2] = target: Interleukin-1 receptor-associated kinase 1 (Homo sapiens) (UniProt P51617); assay: Inhibition of IRAK1 (unknown origin) at 10 uM relative to control
Interleukin-1 receptor-associated kinase 1 (Homo sapiens), sequence (P51617 whole entry, looked up): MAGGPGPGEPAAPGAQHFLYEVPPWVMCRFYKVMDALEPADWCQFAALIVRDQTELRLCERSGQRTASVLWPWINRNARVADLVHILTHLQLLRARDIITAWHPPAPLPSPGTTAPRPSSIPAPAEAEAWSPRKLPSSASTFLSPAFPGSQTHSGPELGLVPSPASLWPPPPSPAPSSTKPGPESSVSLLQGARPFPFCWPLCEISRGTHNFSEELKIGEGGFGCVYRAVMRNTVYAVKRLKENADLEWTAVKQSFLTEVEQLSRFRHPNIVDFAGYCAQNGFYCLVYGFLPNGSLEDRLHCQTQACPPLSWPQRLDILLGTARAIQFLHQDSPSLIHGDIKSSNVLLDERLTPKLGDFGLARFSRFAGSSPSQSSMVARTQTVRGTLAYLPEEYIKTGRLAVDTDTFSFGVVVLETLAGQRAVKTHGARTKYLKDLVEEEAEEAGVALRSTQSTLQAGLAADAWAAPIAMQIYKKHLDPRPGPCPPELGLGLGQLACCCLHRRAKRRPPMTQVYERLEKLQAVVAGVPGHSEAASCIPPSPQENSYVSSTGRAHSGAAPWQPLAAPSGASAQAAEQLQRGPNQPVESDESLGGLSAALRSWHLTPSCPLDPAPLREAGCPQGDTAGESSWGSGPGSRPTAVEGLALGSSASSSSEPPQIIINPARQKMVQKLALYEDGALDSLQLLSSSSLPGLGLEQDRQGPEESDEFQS

Mus musculus [3] = assay: Antiinflammatory activity against C57BL/6 mouse model of DSS induced ulcerative colitis assessed as reduction in inflammatory cytokines infiltration in intestine at 20 mg/kg, po administered daily for 10 days by immunohistochemical staining based analysis; assay type: functional, organism-based; conditions: time 10.0 day
Mus musculus [4] = assay: Antiinflammatory activity against C57BL/6 mouse model of DSS induced ulcerative colitis assessed as reduction in IL-6 level in serum at 20 mg/kg, po administered daily for 10 days; assay type: functional, organism-based; conditions: time 10.0 day
[5] = Tmax in male Sprague-Dawley rat at 10 mg/kg, po by UPLC-MS/MS analysis; assay type: ADME, organism-based; conditions: in vivo
J774.A1 [6] = assay: Inhibition of NFkappaB signaling pathway in LPS-induced mouse J774.A1 cells assessed as reduction in IkappaBalpha degradation pretreated for 2 hrs followed by LPS stimulation and measured after 30 mins by Western blot analysis; assay type: cell-based; conditions: time 2.5 hrs
THP-1 [7] = assay: Antiinflammatory activity against LPS-induced PMA-differentiated human THP-1 cells assessed as inhibition of TNF-alpha release pretreated for 30 mins followed by LPS stimulation and measured after 24 hrs by ELISA; assay type: functional, cell-based
[8] = Half life in male Sprague-Dawley rat at 10 mg/kg, po by UPLC-MS/MS analysis; assay type: ADME, organism-based; conditions: in vivo
Mus musculus [9] = assay: Antiinflammatory activity against C57BL/6 mouse model of LPS induced acute lung injury assessed as reduction in IL-6 level in BALF at 20 mg/kg, po administered every 12 hrs for 3 times followed by LPS stimulation for 6 hrs starting from 30 mins post last dose by ELISA; assay type: functional, organism-based; conditions: time 42.5 hrs
Mus musculus [10] = assay: Antiinflammatory activity against C57BL/6 mouse model of DSS induced ulcerative colitis assessed as protection against goblet cell depletion at 20 mg/kg, po administered daily for 10 days by H and E staining based analysis; assay type: functional, organism-based; conditions: time 10.0 day
Mus musculus [11] = assay: Antiinflammatory activity against C57BL/6 mouse model of DSS induced ulcerative colitis assessed as protection against crypt necrosis at 20 mg/kg, po administered daily for 10 days by H and E staining based analysis; assay type: functional, organism-based; conditions: time 10.0 day
[12] = target: Mitogen-activated protein kinase kinase kinase 7 (Homo sapiens) (UniProt O43318); assay: Inhibition of TAK1 (unknown origin) at 10 uM relative to control
Mitogen-activated protein kinase kinase kinase 7 (Homo sapiens), sequence (O43318 whole entry, looked up): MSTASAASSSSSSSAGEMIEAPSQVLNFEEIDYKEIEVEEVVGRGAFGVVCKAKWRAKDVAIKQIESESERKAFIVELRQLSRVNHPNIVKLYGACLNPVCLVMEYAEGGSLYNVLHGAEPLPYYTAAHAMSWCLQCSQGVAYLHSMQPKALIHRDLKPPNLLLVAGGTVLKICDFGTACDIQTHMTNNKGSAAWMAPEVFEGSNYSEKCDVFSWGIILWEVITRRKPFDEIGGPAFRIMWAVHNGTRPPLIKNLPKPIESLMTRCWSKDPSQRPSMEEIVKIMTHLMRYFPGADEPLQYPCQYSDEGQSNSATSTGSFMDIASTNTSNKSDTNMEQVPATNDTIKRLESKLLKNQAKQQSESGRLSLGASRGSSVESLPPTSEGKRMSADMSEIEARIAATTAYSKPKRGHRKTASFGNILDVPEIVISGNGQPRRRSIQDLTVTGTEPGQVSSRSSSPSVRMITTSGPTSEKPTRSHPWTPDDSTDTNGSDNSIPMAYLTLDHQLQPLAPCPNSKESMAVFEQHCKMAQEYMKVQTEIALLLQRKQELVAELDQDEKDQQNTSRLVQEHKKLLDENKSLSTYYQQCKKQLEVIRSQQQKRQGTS

Mus musculus [13] = assay: Antiinflammatory activity against C57BL/6 mouse model of LPS induced acute lung injury assessed as reduction in thickening of alveolar septa at 20 mg/kg, po administered every 12 hrs for 3 times followed by LPS stimulation for 6 hrs starting from 30 mins post last dose by H and E staining based analysis; assay type: functional, organism-based; conditions: time 42.5 hrs
Mus musculus [14] = assay: Antiinflammatory activity against C57BL/6 mouse model of DSS induced ulcerative colitis assessed as reversal of splenomegaly at 100 mg/kg, po administered daily for 10 days; assay type: functional, organism-based; conditions: time 10.0 day
[15] = AUC (0 to t) in male Sprague-Dawley rat at 10 mg/kg, po by UPLC-MS/MS analysis; assay type: ADME, organism-based; conditions: in vivo
J774.A1 [16] = assay: Antiinflammatory activity against LPS-induced mouse J774.A1 cells assessed as inhibition of IL-6 release pretreated for 30 mins followed by LPS stimulation and measured after 24 hrs by ELISA; assay type: functional, cell-based
Mus musculus [17] = assay: Antiinflammatory activity against C57BL/6 mouse model of LPS induced acute lung injury assessed as reduction in total number of cells in BALF at 20 mg/kg, po administered every 12 hrs for 3 times followed by LPS stimulation for 6 hrs starting from 30 mins post last dose; assay type: functional, organism-based; conditions: time 42.5 hrs
[18] = Acute toxicity in ICR mouse assessed as pathological changes in kidney at 500 mg/kg, po measured daily for 10 days by H and E staining based analysis; assay type: organism-based; conditions: in vivo, 240 h, time 10 day
[19] = Acute toxicity in ICR mouse assessed as reduction in body weight at 500 mg/kg, po measured daily for 10 days; assay type: organism-based; conditions: in vivo, 240 h, time 10 day
Mus musculus [20] = assay: Antiinflammatory activity against C57BL/6 mouse model of LPS induced acute lung injury assessed as reduction in IL-6 mRNA expression in lung at 20 mg/kg, po administered every 12 hrs for 3 times followed by LPS stimulation for 6 hrs starting from 30 mins post last dose by RT-qPCR analysis; assay type: functional, organism-based; conditions: time 42.5 hrs
[21] = Acute toxicity in ICR mouse assessed as pathological changes in heart at 500 mg/kg, po measured daily for 10 days by H and E staining based analysis; assay type: organism-based; conditions: in vivo, 240 h, time 10 day
Mus musculus [22] = assay: Antiinflammatory activity against C57BL/6 mouse model of DSS induced ulcerative colitis assessed as reversal of weight loss at 20 mg/kg, po administered daily for 10 days; assay type: functional, organism-based; conditions: time 10.0 day
J774.A1 [23] = assay: Inhibition of NFkappaB signaling pathway in LPS-induced mouse J774.A1 cells assessed as reduction in p65 phosphorylation pretreated for 2 hrs followed by LPS stimulation and measured after 30 mins by Western blot analysis; assay type: cell-based; conditions: time 2.5 hrs
RAW264.7 = assay: Potency index, ratio of osthole IC50 to test compound IC50 for antiinflammatory activity against LPS-induced mouse RAW264.7 cells assessed as inhibition of IL-6 release pretreated for 30 mins followed by LPS stimulation and measured after 24 hrs by ELISA; assay type: functional; conditions: time 24.5 hrs
THP-1 [24] = assay: Antiinflammatory activity against LPS-induced PMA-differentiated human THP-1 cells assessed as inhibition of IL-6 release pretreated for 30 mins followed by LPS stimulation and measured after 24 hrs by ELISA; assay type: functional, cell-based
Mus musculus [25] = assay: Antiinflammatory activity against C57BL/6 mouse model of LPS induced acute lung injury assessed as reduction in pulmonary edema by measuring reduction in lung wet/dry ratio at 20 mg/kg, po administered every 12 hrs for 3 times followed by LPS stimulation for 6 hrs starting from 30 mins post last dose; assay type: functional, organism-based; conditions: time 42.5 hrs
Mus musculus [26] = assay: Antiinflammatory activity against C57BL/6 mouse model of DSS induced ulcerative colitis assessed as protection against mucosal damage at 20 mg/kg, po administered daily for 10 days by H and E staining based analysis; assay type: functional, organism-based; conditions: time 10.0 day
Mus musculus [27] = assay: Antiinflammatory activity against C57BL/6 mouse model of LPS induced acute lung injury assessed as reduction in TNF-alpha mRNA expression in lung at 20 mg/kg, po administered every 12 hrs for 3 times followed by LPS stimulation for 6 hrs starting from 30 mins post last dose by RT-qPCR analysis; assay type: functional, organism-based; conditions: time 42.5 hrs
[28] = Acute toxicity in ICR mouse assessed as pathological changes in spleen at 500 mg/kg, po measured daily for 10 days by H and E staining based analysis; assay type: organism-based; conditions: in vivo, 240 h, time 10 day
Mus musculus [29] = assay: Antiinflammatory activity against C57BL/6 mouse model of LPS induced acute lung injury assessed as reduction in inflammatory cell infiltration at 20 mg/kg, po administered every 12 hrs for 3 times followed by LPS stimulation for 6 hrs starting from 30 mins post last dose by H and E staining based analysis; assay type: functional, organism-based; conditions: time 42.5 hrs
[30] = Acute toxicity in ICR mouse assessed as pathological changes in liver at 500 mg/kg, po measured daily for 10 days by H and E staining based analysis; assay type: organism-based; conditions: in vivo, 240 h, time 10 day

SMILES: CC(C)=CCc1c(OCCCCNCCN2CCOCC2)ccc2ccc(=O)oc12
- inhibition at 10 µM (J774.A1 [1]): 95%
- inhibition [2]: 10.3%
- Activity (Mus musculus [3]): Active
- Activity (Mus musculus [4]): Active
- Tmax [5]: 3.33 h
- inhibition (J774.A1 [6]): inactive
- IC50 (THP-1 [7]): 27.4 µM
- half-life [8]: 10.7 h
- Activity (Mus musculus [9]): Active
- Activity (Mus musculus [10]): Active
- Activity (Mus musculus [11]): Active
- inhibition [12]: 5.23%
- Activity (Mus musculus [13]): Active
- Activity (Mus musculus [14]): Active
- AUC(0-t) [15]: 1120 ng·h/mL
- IC50 (J774.A1 [16]): 4.23 µM
- Activity (J774.A1 [16]; time 24.5 hrs): Dose-Dependent Effect
- Activity (Mus musculus [17]): Active
- Activity [18]: Non-Toxic
- Activity [19]: Non-Toxic
- Activity (Mus musculus [20]): Active
- Activity [21]: Non-Toxic
- Activity (Mus musculus [22]): Active
- inhibition (J774.A1 [23]): inactive
- Ratio IC50 (RAW264.7): 32
- IC50 (THP-1 [24]): 10.6 µM
- Activity (Mus musculus [25]): Active
- Activity (Mus musculus [26]): Active
- Activity (Mus musculus [27]): Active
- Activity [28]: Non-Toxic
- Activity (Mus musculus [29]): Active
- Activity [30]: Non-Toxic
